# Numbers after ± are expanded uncertainties.
# Key:
# [1] = mn = molality of the nth substance listed, in mol/kg; conditions: 101 kPa, Liquid, Direct current cell with electrodes
# [2] = 101.33 kPa, Liquid; for viscosity: Capillary tube (Ostwald / Ubbelohde) method; for mass density: Vibrating tube method
smiles,measurement,setting,value
CCCCn1cc[n+](CCC)c1.[Br-] [1-butyl-3-propyl-1H-imidazolium bromide] + CC#N,molar conductivity,"[1]; 308 K, m1 = 0.01014",0.00955 ± 6e-06 S·m2/mol
same,molar conductivity,"[1]; 308 K, m1 = 0.01352",0.00916 ± 6e-06 S·m2/mol
same,molar conductivity,"[1]; 308 K, m1 = 0.01803",0.008751 ± 5e-06 S·m2/mol
same,molar conductivity,"[1]; 308 K, m1 = 0.02405",0.008325 ± 5e-06 S·m2/mol
same,molar conductivity,"[1]; 308 K, m1 = 0.0275",0.008123 ± 5e-06 S·m2/mol
same,molar conductivity,"[1]; 308 K, m1 = 0.03209",0.007883 ± 4e-06 S·m2/mol
same,molar conductivity,"[1]; 308 K, m1 = 0.04281",0.007424 ± 4e-06 S·m2/mol
same,molar conductivity,"[1]; 308 K, m1 = 0.05714",0.006944 ± 4e-06 S·m2/mol
same,molar conductivity,"[1]; 308 K, m1 = 0.0656",0.006707 ± 4e-06 S·m2/mol
same,molar conductivity,"[1]; 308 K, m1 = 0.07628",0.006433 ± 4e-06 S·m2/mol
same,molar conductivity,"[1]; 308 K, m1 = 0.08982",0.006124 ± 4e-06 S·m2/mol
same,molar conductivity,"[1]; 308 K, m1 = 0.09987",0.00592 ± 4e-06 S·m2/mol
same,molar conductivity,"[1]; 313 K, m1 = 0.01014",0.010075 ± 7e-06 S·m2/mol
same,molar conductivity,"[1]; 313 K, m1 = 0.01352",0.009604 ± 6e-06 S·m2/mol
same,molar conductivity,"[1]; 313 K, m1 = 0.01803",0.009155 ± 6e-06 S·m2/mol
same,molar conductivity,"[1]; 313 K, m1 = 0.02405",0.008691 ± 5e-06 S·m2/mol
same,molar conductivity,"[1]; 313 K, m1 = 0.03209",0.008213 ± 5e-06 S·m2/mol
same,molar conductivity,"[1]; 313 K, m1 = 0.04281",0.007724 ± 4e-06 S·m2/mol
same,molar conductivity,"[1]; 313 K, m1 = 0.04875",0.007467 ± 4e-06 S·m2/mol
same,molar conductivity,"[1]; 313 K, m1 = 0.05714",0.007222 ± 4e-06 S·m2/mol
same,molar conductivity,"[1]; 313 K, m1 = 0.0656",0.006956 ± 4e-06 S·m2/mol
same,molar conductivity,"[1]; 313 K, m1 = 0.07628",0.006701 ± 4e-06 S·m2/mol
same,molar conductivity,"[1]; 313 K, m1 = 0.08982",0.006393 ± 4e-06 S·m2/mol
same,molar conductivity,"[1]; 313 K, m1 = 0.09987",0.006199 ± 4e-06 S·m2/mol
same,molar conductivity,"[1]; 318 K, m1 = 0.01014",0.01063 ± 7e-06 S·m2/mol
same,molar conductivity,"[1]; 318 K, m1 = 0.01352",0.010128 ± 7e-06 S·m2/mol
same,molar conductivity,"[1]; 318 K, m1 = 0.01803",0.009627 ± 6e-06 S·m2/mol
same,molar conductivity,"[1]; 318 K, m1 = 0.02405",0.009114 ± 6e-06 S·m2/mol
same,molar conductivity,"[1]; 318 K, m1 = 0.03209",0.008595 ± 5e-06 S·m2/mol
same,molar conductivity,"[1]; 318 K, m1 = 0.04281",0.008054 ± 5e-06 S·m2/mol
same,molar conductivity,"[1]; 318 K, m1 = 0.04875",0.007807 ± 5e-06 S·m2/mol
same,molar conductivity,"[1]; 318 K, m1 = 0.05714",0.007523 ± 4e-06 S·m2/mol
same,molar conductivity,"[1]; 318 K, m1 = 0.0656",0.007255 ± 4e-06 S·m2/mol
same,molar conductivity,"[1]; 318 K, m1 = 0.07628",0.006968 ± 4e-06 S·m2/mol
same,molar conductivity,"[1]; 318 K, m1 = 0.08982",0.006648 ± 4e-06 S·m2/mol
same,molar conductivity,"[1]; 318 K, m1 = 0.09987",0.006435 ± 4e-06 S·m2/mol
CCCCn1cc[n+](CCC)c1.[Br-] [1-butyl-3-propyl-1H-imidazolium bromide] + CO,molar conductivity,"[1]; 308 K, m1 = 0.005755",0.006546 ± 5e-06 S·m2/mol
same,molar conductivity,"[1]; 308 K, m1 = 0.007673",0.006395 ± 5e-06 S·m2/mol
same,molar conductivity,"[1]; 308 K, m1 = 0.01023",0.006239 ± 5e-06 S·m2/mol
same,molar conductivity,"[1]; 308 K, m1 = 0.01364",0.006083 ± 5e-06 S·m2/mol
same,molar conductivity,"[1]; 308 K, m1 = 0.01819",0.005932 ± 5e-06 S·m2/mol
same,molar conductivity,"[1]; 308 K, m1 = 0.02425",0.005792 ± 5e-06 S·m2/mol
same,molar conductivity,"[1]; 308 K, m1 = 0.03234",0.005668 ± 5e-06 S·m2/mol
same,molar conductivity,"[1]; 308 K, m1 = 0.04311",0.005561 ± 5e-06 S·m2/mol
same,molar conductivity,"[1]; 308 K, m1 = 0.05749",0.005468 ± 5e-06 S·m2/mol
same,molar conductivity,"[1]; 308 K, m1 = 0.07665",0.005372 ± 5e-06 S·m2/mol
same,molar conductivity,"[1]; 308 K, m1 = 0.09017",0.005304 ± 4e-06 S·m2/mol
same,molar conductivity,"[1]; 308 K, m1 = 0.1002",0.005238 ± 4e-06 S·m2/mol
same,molar conductivity,"[1]; 313 K, m1 = 0.007673",0.006815 ± 6e-06 S·m2/mol
same,molar conductivity,"[1]; 313 K, m1 = 0.01023",0.006658 ± 5e-06 S·m2/mol
same,molar conductivity,"[1]; 313 K, m1 = 0.01364",0.006493 ± 5e-06 S·m2/mol
same,molar conductivity,"[1]; 313 K, m1 = 0.01819",0.006333 ± 5e-06 S·m2/mol
same,molar conductivity,"[1]; 313 K, m1 = 0.02425",0.006185 ± 5e-06 S·m2/mol
same,molar conductivity,"[1]; 313 K, m1 = 0.03234",0.006052 ± 5e-06 S·m2/mol
same,molar conductivity,"[1]; 313 K, m1 = 0.04311",0.005936 ± 5e-06 S·m2/mol
same,molar conductivity,"[1]; 313 K, m1 = 0.05749",0.005832 ± 5e-06 S·m2/mol
same,molar conductivity,"[1]; 313 K, m1 = 0.07665",0.005703 ± 5e-06 S·m2/mol
same,molar conductivity,"[1]; 313 K, m1 = 0.09017",0.005611 ± 5e-06 S·m2/mol
same,molar conductivity,"[1]; 313 K, m1 = 0.1002",0.00554 ± 5e-06 S·m2/mol
same,molar conductivity,"[1]; 318 K, m1 = 0.005755",0.00748 ± 6e-06 S·m2/mol
same,molar conductivity,"[1]; 318 K, m1 = 0.007673",0.00729 ± 6e-06 S·m2/mol
same,molar conductivity,"[1]; 318 K, m1 = 0.01023",0.007119 ± 6e-06 S·m2/mol
same,molar conductivity,"[1]; 318 K, m1 = 0.01364",0.006946 ± 6e-06 S·m2/mol
same,molar conductivity,"[1]; 318 K, m1 = 0.01819",0.006781 ± 6e-06 S·m2/mol
same,molar conductivity,"[1]; 318 K, m1 = 0.02425",0.006627 ± 6e-06 S·m2/mol
same,molar conductivity,"[1]; 318 K, m1 = 0.03234",0.006491 ± 5e-06 S·m2/mol
same,molar conductivity,"[1]; 318 K, m1 = 0.04311",0.006371 ± 5e-06 S·m2/mol
same,molar conductivity,"[1]; 318 K, m1 = 0.05749",0.006257 ± 5e-06 S·m2/mol
same,molar conductivity,"[1]; 318 K, m1 = 0.07665",0.006123 ± 5e-06 S·m2/mol
same,molar conductivity,"[1]; 318 K, m1 = 0.09017",0.006016 ± 5e-06 S·m2/mol
same,molar conductivity,"[1]; 318 K, m1 = 0.1002",0.005923 ± 5e-06 S·m2/mol
CCCCn1cc[n+](CCC)c1.[Br-] [1-butyl-3-propyl-1H-imidazolium bromide] + O,molar conductivity,"[1]; 308 K, m1 = 0.005651",0.012224 ± 1.1e-05 S·m2/mol
same,molar conductivity,"[1]; 308 K, m1 = 0.007536",0.012106 ± 1.1e-05 S·m2/mol
same,molar conductivity,"[1]; 308 K, m1 = 0.01005",0.011972 ± 1.1e-05 S·m2/mol
same,molar conductivity,"[1]; 308 K, m1 = 0.01341",0.011818 ± 1.1e-05 S·m2/mol
same,molar conductivity,"[1]; 308 K, m1 = 0.0179",0.011642 ± 1.1e-05 S·m2/mol
same,molar conductivity,"[1]; 308 K, m1 = 0.02389",0.011441 ± 1.1e-05 S·m2/mol
same,molar conductivity,"[1]; 308 K, m1 = 0.0319",0.011212 ± 1.1e-05 S·m2/mol
same,molar conductivity,"[1]; 308 K, m1 = 0.04262",0.01095 ± 1.1e-05 S·m2/mol
same,molar conductivity,"[1]; 308 K, m1 = 0.05696",0.01065 ± 1e-05 S·m2/mol
same,molar conductivity,"[1]; 308 K, m1 = 0.07621",0.010304 ± 1e-05 S·m2/mol
same,molar conductivity,"[1]; 308 K, m1 = 0.08987",0.010084 ± 1e-05 S·m2/mol
same,molar conductivity,"[1]; 308 K, m1 = 0.1",0.00996 ± 1e-05 S·m2/mol
same,molar conductivity,"[1]; 313 K, m1 = 0.005651",0.013136 ± 1e-05 S·m2/mol
same,molar conductivity,"[1]; 313 K, m1 = 0.007536",0.013013 ± 1e-05 S·m2/mol
same,molar conductivity,"[1]; 313 K, m1 = 0.01005",0.012872 ± 1e-05 S·m2/mol
same,molar conductivity,"[1]; 313 K, m1 = 0.01341",0.012712 ± 1e-05 S·m2/mol
same,molar conductivity,"[1]; 313 K, m1 = 0.0179",0.012531 ± 1e-05 S·m2/mol
same,molar conductivity,"[1]; 313 K, m1 = 0.02389",0.01232 ± 1e-05 S·m2/mol
same,molar conductivity,"[1]; 313 K, m1 = 0.0319",0.012091 ± 1e-05 S·m2/mol
same,molar conductivity,"[1]; 313 K, m1 = 0.04262",0.011824 ± 1.1e-05 S·m2/mol
same,molar conductivity,"[1]; 313 K, m1 = 0.05696",0.011518 ± 1.1e-05 S·m2/mol
same,molar conductivity,"[1]; 313 K, m1 = 0.07621",0.011165 ± 1.1e-05 S·m2/mol
same,molar conductivity,"[1]; 313 K, m1 = 0.08987",0.01094 ± 1.1e-05 S·m2/mol
same,molar conductivity,"[1]; 313 K, m1 = 0.1",0.0108 ± 1.1e-05 S·m2/mol
same,molar conductivity,"[1]; 318 K, m1 = 0.005651",0.01387 ± 1e-05 S·m2/mol
same,molar conductivity,"[1]; 318 K, m1 = 0.007536",0.01376 ± 1e-05 S·m2/mol
same,molar conductivity,"[1]; 318 K, m1 = 0.01005",0.013625 ± 1e-05 S·m2/mol
same,molar conductivity,"[1]; 318 K, m1 = 0.01341",0.013474 ± 1e-05 S·m2/mol
same,molar conductivity,"[1]; 318 K, m1 = 0.0179",0.013305 ± 1e-05 S·m2/mol
same,molar conductivity,"[1]; 318 K, m1 = 0.02389",0.013116 ± 1e-05 S·m2/mol
same,molar conductivity,"[1]; 318 K, m1 = 0.0319",0.012905 ± 1e-05 S·m2/mol
same,molar conductivity,"[1]; 318 K, m1 = 0.04262",0.012669 ± 1e-05 S·m2/mol
same,molar conductivity,"[1]; 318 K, m1 = 0.05696",0.012401 ± 1.1e-05 S·m2/mol
same,molar conductivity,"[1]; 318 K, m1 = 0.07621",0.012094 ± 1.1e-05 S·m2/mol
same,molar conductivity,"[1]; 318 K, m1 = 0.08987",0.011898 ± 1.1e-05 S·m2/mol
same,molar conductivity,"[1]; 318 K, m1 = 0.1",0.01177 ± 1.1e-05 S·m2/mol
CC#N [acetonitrile],viscosity,[2]; 308.15 K,0.3125 ± 0.013 mPa·s
same,mass density,[2]; 308.15 K,765.64 ± 0.25 kg/m3
same,viscosity,[2]; 313.15 K,0.3042 ± 0.013 mPa·s
same,mass density,[2]; 313.15 K,759.7 ± 0.25 kg/m3
same,viscosity,[2]; 318.15 K,0.2903 ± 0.011 mPa·s
same,mass density,[2]; 318.15 K,755.01 ± 0.25 kg/m3
CO [methanol],viscosity,[2]; 308.15 K,0.4747 ± 0.0059 mPa·s
same,mass density,[2]; 308.15 K,777.18 ± 0.13 kg/m3
same,viscosity,[2]; 313.15 K,0.444 ± 0.0058 mPa·s
same,mass density,[2]; 313.15 K,772.5 ± 0.13 kg/m3
same,viscosity,[2]; 318.15 K,0.4185 ± 0.0057 mPa·s
same,mass density,[2]; 318.15 K,767.7 ± 0.13 kg/m3
